Tested on: 874868-142-R-J2-PDC complex spheroids, growth % test/control
Experiment: Anticancer human tumor 874868-142-R-J2-PDC patient-derived head and neck squamous carcinoma cell line growth inhibition [CLK]
Settings: for IC50: curve of first compound; for viability, T/C: stronger effect = lower value
Procedure, shortened: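 Multi-cell-type spheroids combined patient-derived tumor cells with HUVEC endothelial cells and human mesenchymal stem cells. Paired agents were dosed in half-log steps down from about clinical Cmax, or from 10 microM where Cmax was unknown.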

[1] = second compound 0.0316 µM, first compound 0.0316 µM
[2] = second compound 0.0316 µM, first compound 0.1 µM
[3] = second compound 0.0316 µM, first compound 0.316 µM
[4] = second compound 0.0316 µM, first compound 1 µM
[5] = second compound 0.1 µM, first compound 0.0316 µM
[6] = second compound 0.1 µM, first compound 0.1 µM
[7] = second compound 0.1 µM, first compound 0.316 µM
[8] = second compound 0.1 µM, first compound 1 µM
[9] = second compound 0.316 µM, first compound 0.0316 µM
[10] = second compound 0.316 µM, first compound 0.1 µM
[11] = second compound 0.316 µM, first compound 0.316 µM
[12] = second compound 0.316 µM, first compound 1 µM
[13] = second compound 1 µM, first compound 0.0316 µM
[14] = second compound 1 µM, first compound 0.1 µM
[15] = second compound 1 µM, first compound 0.316 µM
[16] = second compound 1 µM, first compound 1 µM
[17] = second compound 3.16 µM, first compound 0.0316 µM
[18] = second compound 3.16 µM, first compound 0.1 µM
[19] = second compound 3.16 µM, first compound 0.316 µM
[20] = second compound 3.16 µM, first compound 1 µM
[21] = second compound 10 µM, first compound 0.0316 µM
[22] = second compound 10 µM, first compound 0.1 µM
[23] = second compound 10 µM, first compound 0.316 µM
[24] = second compound 10 µM, first compound 1 µM
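Further: spheroids exposed to the compounds for 7 days.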
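Wherever viability, T/C is given: 100% = DMSO vehicle control viability.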

C=CC(=O)Nc1cc(Nc2nccc(-c3cn(C)c4ccccc34)n2)c(OC)cc1N(C)CCN(C)C + CN1CCN(c2cc(C(=O)Nc3cc4cc(-c5cnn(C)c5)ccc4cn3)ccn2)CC1
IC50 (second compound 0.0316 µM): 51.9 nM | IC50 (second compound 0.1 µM): 21.9 nM | IC50 (second compound 0.316 µM): < 0.949 nM | IC50 (second compound 1 µM): < 0.949 nM | IC50 (second compound 3.16 µM): < 0.949 nM | IC50 (second compound 10 µM): < 0.949 nM | viability, T/C (second compound 0.0316 µM, first compound 0.000949 µM): 84.1% | viability, T/C (second compound 0.0316 µM, first compound 0.003 µM): 90.5% | viability, T/C (second compound 0.0316 µM, first compound 0.00949 µM): 80.3% | viability, T/C (second compound 0.0316 µM, first compound 0.03 µM): 61.9% | viability, T/C (second compound 0.0316 µM, first compound 0.0949 µM): 37.1% | viability, T/C (second compound 0.0316 µM, first compound 0.3 µM): 27.3% | viability, T/C (second compound 0.1 µM, first compound 0.000949 µM): 76% | viability, T/C (second compound 0.1 µM, first compound 0.003 µM): 70.6% | viability, T/C (second compound 0.1 µM, first compound 0.00949 µM): 59.1% | viability, T/C (second compound 0.1 µM, first compound 0.03 µM): 49.6% | viability, T/C (second compound 0.1 µM, first compound 0.0949 µM): 26.8% | viability, T/C (second compound 0.1 µM, first compound 0.3 µM): 22% | viability, T/C (second compound 0.316 µM, first compound 0.000949 µM): 19.2% | viability, T/C (second compound 0.316 µM, first compound 0.003 µM): 16.2% | viability, T/C (second compound 0.316 µM, first compound 0.00949 µM): 19.7% | viability, T/C (second compound 0.316 µM, first compound 0.03 µM): 9.31% | viability, T/C (second compound 0.316 µM, first compound 0.0949 µM): 15.2% | viability, T/C (second compound 0.316 µM, first compound 0.3 µM): 7.92% | viability, T/C (second compound 1 µM, first compound 0.000949 µM): 0.41% | viability, T/C (second compound 1 µM, first compound 0.003 µM): 0.88% | viability, T/C (second compound 1 µM, first compound 0.00949 µM): 1.96% | viability, T/C (second compound 1 µM, first compound 0.03 µM): 0.37% | viability, T/C (second compound 1 µM, first compound 0.0949 µM): 0.71% | viability, T/C (second compound 1 µM, first compound 0.3 µM): 0.79% | viability, T/C (second compound 3.16 µM, first compound 0.000949 µM): 0.27% | viability, T/C (second compound 3.16 µM, first compound 0.003 µM): 0.34% | viability, T/C (second compound 3.16 µM, first compound 0.00949 µM): 0.26% | viability, T/C (second compound 3.16 µM, first compound 0.03 µM): 0.66% | viability, T/C (second compound 3.16 µM, first compound 0.0949 µM): 4.28% | viability, T/C (second compound 3.16 µM, first compound 0.3 µM): 0.48% | viability, T/C (second compound 10 µM, first compound 0.000949 µM): 7.4% | viability, T/C (second compound 10 µM, first compound 0.003 µM): 0.25% | viability, T/C (second compound 10 µM, first compound 0.00949 µM): 3.1% | viability, T/C (second compound 10 µM, first compound 0.03 µM): 0.21% | viability, T/C (second compound 10 µM, first compound 0.0949 µM): 1.3% | viability, T/C (second compound 10 µM, first compound 0.3 µM): 2.16%

CC(Nc1ccc2c(c1)OCCn1cc(N3C(=O)OCC3C(F)F)nc1-2)C(N)=O (stereo unspecified) + CN1CCN(c2cc(C(=O)Nc3cc4cc(-c5cnn(C)c5)ccc4cn3)ccn2)CC1
IC50 (second compound 0.0316 µM): 89.4 nM | IC50 (second compound 0.1 µM): 75.5 nM | IC50 (second compound 0.316 µM): < 31.6 nM | IC50 (second compound 1 µM): < 31.6 nM | IC50 (second compound 3.16 µM): < 31.6 nM | IC50 (second compound 10 µM): < 31.6 nM | viability, T/C [1]: 69.5% | viability, T/C [2]: 46.7% | viability, T/C [3]: 33.7% | viability, T/C [4]: 22.6% | viability, T/C (second compound 0.0316 µM, first compound 3.16 µM): 13.8% | viability, T/C (second compound 0.0316 µM, first compound 10 µM): 12.3% | viability, T/C [5]: 78.7% | viability, T/C [6]: 36.1% | viability, T/C [7]: 30.2% | viability, T/C [8]: 20.7% | viability, T/C (second compound 0.1 µM, first compound 3.16 µM): 12.8% | viability, T/C (second compound 0.1 µM, first compound 10 µM): 12% | viability, T/C [9]: 19.3% | viability, T/C [10]: 15.2% | viability, T/C [11]: 17.8% | viability, T/C [12]: 8.67% | viability, T/C (second compound 0.316 µM, first compound 3.16 µM): 12.4% | viability, T/C (second compound 0.316 µM, first compound 10 µM): 8.37% | viability, T/C [13]: 0.31% | viability, T/C [14]: 1.8% | viability, T/C [15]: 1.32% | viability, T/C [16]: 0.15% | viability, T/C (second compound 1 µM, first compound 3.16 µM): 1.54% | viability, T/C (second compound 1 µM, first compound 10 µM): 0.14% | viability, T/C [17]: 0.28% | viability, T/C [18]: 3.06% | viability, T/C [19]: 0.36% | viability, T/C [20]: 0.11% | viability, T/C (second compound 3.16 µM, first compound 3.16 µM): 0.47% | viability, T/C (second compound 3.16 µM, first compound 10 µM): 0.23% | viability, T/C [21]: 0.13% | viability, T/C [22]: 0.11% | viability, T/C [23]: 1.27% | viability, T/C [24]: 0.14% | viability, T/C (second compound 10 µM, first compound 3.16 µM): 0.18% | viability, T/C (second compound 10 µM, first compound 10 µM): 0.2%

CCN1CCN(Cc2ccc(Nc3ncc(F)c(-c4cc(F)c5nc(C)n(C(C)C)c5c4)n3)nc2)CC1 + CN1CCN(c2cc(C(=O)Nc3cc4cc(-c5cnn(C)c5)ccc4cn3)ccn2)CC1
IC50 (second compound 0.0316 µM): > 1000 nM | IC50 (second compound 0.1 µM): > 1000 nM | IC50 (second compound 0.316 µM): < 3.16 nM | IC50 (second compound 1 µM): < 3.16 nM | IC50 (second compound 3.16 µM): < 3.16 nM | IC50 (second compound 10 µM): < 3.16 nM | viability, T/C (second compound 0.0316 µM, first compound 0.00316 µM): 82.8% | viability, T/C (second compound 0.0316 µM, first compound 0.01 µM): 65% | viability, T/C [1]: 82.2% | viability, T/C [2]: 89% | viability, T/C [3]: 72% | viability, T/C [4]: 110% | viability, T/C (second compound 0.1 µM, first compound 0.00316 µM): 85.4% | viability, T/C (second compound 0.1 µM, first compound 0.01 µM): 66.9% | viability, T/C [5]: 54.9% | viability, T/C [6]: 66.8% | viability, T/C [7]: 62.5% | viability, T/C [8]: 91% | viability, T/C (second compound 0.316 µM, first compound 0.00316 µM): 22.7% | viability, T/C (second compound 0.316 µM, first compound 0.01 µM): 22.2% | viability, T/C [9]: 25.9% | viability, T/C [10]: 23.1% | viability, T/C [11]: 43.9% | viability, T/C [12]: 49.6% | viability, T/C (second compound 1 µM, first compound 0.00316 µM): 0.58% | viability, T/C (second compound 1 µM, first compound 0.01 µM): 0.34% | viability, T/C [13]: 0.43% | viability, T/C [14]: 0.43% | viability, T/C [15]: 0.48% | viability, T/C [16]: 0.58% | viability, T/C (second compound 3.16 µM, first compound 0.00316 µM): 0.3% | viability, T/C (second compound 3.16 µM, first compound 0.01 µM): 2.83% | viability, T/C [17]: 0.23% | viability, T/C [18]: 0.83% | viability, T/C [19]: 0.56% | viability, T/C [20]: 1% | viability, T/C (second compound 10 µM, first compound 0.00316 µM): 0.7% | viability, T/C (second compound 10 µM, first compound 0.01 µM): 2.35% | viability, T/C [21]: 0.16% | viability, T/C [22]: 0.16% | viability, T/C [23]: 0.18% | viability, T/C [24]: 4.41%

Reference: PubChem BioAssay AID2060601 (Molecular Pharmacology Branch, DTP, NCI, 2025)
